Data: patent US9290789B2, “Method for measuring cells, and reagent for cell measurement” (HITACHI HIGH-TECHNOLOGIES CORPORATION, priority 2011, dated 2016)

Tests used:
ATPase = experiment: Residual ATPase activity according to methanol concentrations; format: biochemical; details: 37° C. for 30 minutes
Method: 10 μL of an ATPase-containing ATP elimination solution (Kikkoman Biochemifa Company, ATP elimination reagent included with a Lucifer HS set) was mixed with 80 μL of methanol, the concentration of which had been adjusted. An ATP solution (2×10^6 amol/10 μL) was added to the solution and then it was left to stand at 37° C. for 30 minutes. In addition, the final methanol concentrations were adjusted to 0.1 to 80 (v/v) %.
To measure the remaining ATP level after the addition of the above mixture to a luminescent reagent, the mixture was diluted in water to a methanol concentration of 0.1 (v/v) % or less, assuring that the methanol would not affect the ATP luminescent reaction (Reference Example 2, Table 2). Subsequently, 50 μL of the diluted solution (1×10^3 amol ATP/50 μL) was added to 50 μL of the luminescent reagent, and then the luminescence level was measured. Furthermore, an ATP solution (1×10^3 amol/50 μL) to which no ATPase had been added was prepared. The luminescence level according to the ATP solution was also measured. The luminescence level of the ATPase-free ATP solution was considered almost the same as that of an ATP solution to which ATP had been added after the loss of ATPase activity.

[1] = system: Methylobacterium extorquens; experiment: Intracellular ATP level by ATP luminescence method; format: cell-based
Method: An M. extorquens cell suspension was prepared according to the following procedures. M. extorquens was cultured with agitation in 5 mL of SCD liquid medium (Nissui Pharmaceutical Co., Ltd.) for 72 hours at 25° C. The culture solution (medium) was dispensed into tubes, and then centrifuged for 10 minutes at 10000 rpm, so as to collect cells onto the tube bottoms. Supernatant was removed, and then water was added instead, to suspend cells. Centrifugation was performed again for 10 minutes at 10000 rpm, so as to collect cells onto the tube bottoms. This step was repeated 3 times, medium components were removed, and thus a cell suspension was prepared. Subsequently, the cells were cultured with agitation in water for injection for 3 days at 37° C., so that a cell suspension for ATP luminescence measurement was prepared. […]
Reagents included in a Lucifer HS set (Kikkoman Biochemifa Company) were used as reagents for ATP luminescence measurement. In addition, the Lucifer HS set comprises an ATP elimination enzyme, an ATP extraction reagent, and a luminescent reagent included therewith. […]
100 μL of an ATP extraction solution was added to 100 μL of the mixture after heating. 50 μL of each sample after ATP extraction was added to 50 μL of the luminescent reagent. The thus generated luminescence was measured.
10 μL each of glucose (Wako Pure Chemical Industries, Ltd.), alanine (Wako Pure Chemical Industries, Ltd.), ATPase, 10% methanol, and a phosphate buffer (pH 7.4) (Invitrogen) were added to 50 μL of the M. extorquens cell suspension, thereby preparing a total of 100 μL of a mixture. When glucose, alanine, and methanol were not added, the solution was adjusted to a total 100 μL volume with a phosphate buffer (Table 3, sample Nos. 1 to 5). The mixture was heated at 37° C. for 30 minutes. In the extracellular ATP removal•intracellular ATP increase step (for removing ATP outside of viable cells and increasing ATP within viable cells), 100 μL of an ATP extraction solution was added to 100 μL of the mixture (Table 3, sample Nos. 1 to 4). For comparison of the ATP extraction efficiency of methanol, in the ATP extraction step, 100 μL, of the mixture was mixed with 100 μL of a 1% methanol-containing ATP extraction solution (Table 3, sample No. 5). After ATP extraction, 50 μL of the sample was added to 50 μL of the luminescent reagent, and then the thus generated luminescence was measured. […]
10 μL each of glucose, alanine, ATPase, and if necessary, 10 (v/v) % methanol were added to 50 μL of the M. extorquens cell suspension. Finally, a phosphate buffer (pH 7.4) (Invitrogen) was added for adjustment to a total 100 μL volume. The final concentrations of glucose and alanine ranged from 0.1 mM to 100 mM, and the final concentrations of ATPase and methanol were 10 (v/v) % and 1 (v/v) %, respectively. Each mixture was heated at 37° C. for 30 minutes. 100 μL of an ATP extraction solution was added to 100 μL of the heated mixture, and then 50 μL of sample after ATP extraction was added to 50 μL of a luminescent reagent. The thus generated luminescence was measured.
10 μL each of glucose, alanine, ATPase, and methanol were added to 50 μL of the M. extorquens cell suspension. Finally, a phosphate buffer (pH 7.4) (Invitrogen) was added for adjustment to a total 100 μL volume. The final concentrations of glucose and alanine were each 0.1 mM, the final ATPase concentration was 10 (v/v) %, and the final methanol concentrations ranged from 0% to 80%. Each mixture was heated at 37° C. for 30 minutes. After heating, to remove methanol-containing mixtures, all mixtures were subjected to centrifugal filtration (1 min, 2000 rpm) using Ultrafree-MC, and then mixtures as filtrates were discarded. Subsequently, 200 μL of water was added onto the filter and filtrated to wash the filter. In addition, washing was repeated 5 times. […]

Bacillus subtilis = experiment: Cell viability (colony count) after methanol exposure; format: cell-based; details: 80 (v/v) % methanol, 1 minute; colony count at 0% methanol = 100%
Method: (§1) 10 μL of a cell suspension and 90 μL of methanol, the concentration of which had been adjusted, were mixed, thereby preparing 100 μL of a cell/methanol suspension. The final methanol concentrations ranged from 0 to 80 (v/v) %. As microorganisms (cells), Bacillus subtilis (bacterium, spores, ATCC 6633), Staphylococcus aureus (bacterium, aerobic, ATCC 6538), and Candida albicans (fungus, yeast, ATCC 10231) were used. Each cell suspension was mixed with methanol and then the mixture was left to stand for 1 minute. In the case of bacteria, the mixture was applied and spread over R2A medium (Nissui Pharmaceutical Co., Ltd.) and then cultured at 25° C. for 7 days. In the case of fungi, the mixture was applied and spread over PDA medium (Nissui Pharmaceutical Co., Ltd.) and then cultured at 25° C. for 5 days. After culture, the colony count was then measured according to each methanol concentration. The colony count in the case of 0% methanol was designated as 100% cell viability. Cell viability according to each methanol concentration was examined.

Candida albicans = experiment: as above; format: cell-based; details: maximum of 30 (v/v) % methanol, 1 minute; colony count at 0% methanol = 100%
Method: as §1

Staphylococcus aureus = experiment: as above; format: cell-based; details: maximum of 30 (v/v) % methanol, 1 minute; colony count at 0% methanol = 100%
Method: as §1

[2] = system: ATP•luciferase•luciferin reaction; experiment: Effect of methanol on ATP luminescent reaction; format: biochemical; details: 1000 amol ATP/50 μL; for Relative luminescence: methanol-free ATP solution = 100
Method: 1 mL of an ATP solution (2×10^5 amol ATP/mL, Kikkoman Biochemifa Company Lucifer ATP standard reagent set) was mixed with 10 μl to 5 mL of 100% methanol (Wako Pure Chemical Industries, Ltd.). Water (Invitrogen) was further added to each solution, and thus ATP/methanol solutions (10 mL each) with final methanol concentrations ranging from 0.1 to 50 (v/v) % were prepared (ATP concentration: 2×10^4 amol ATP/mL). Subsequently, 50 μL of the ATP/methanol solution and 50 μL of a luminescent reagent (Kikkoman Biochemifa Company, included with a Lucifer HS set) were mixed to cause a luminescent reaction to take place. The resulting luminescence levels were measured by photocounting using a photomultiplier.
For comparison, 1 mL of a methanol-free ATP solution (2×10^4 amol ATP/mL) was prepared. Subsequently, 50 μL of an ATP solution and 50 μL of the luminescent reagent were mixed to cause a luminescent reaction to take place, and then the luminescence level was measured.

## CO [Methanol, methanol]
ATPase; methanol concentration 80 (v/v) %
  Residual ATPase activity: 20%
ATPase; methanol concentrations 0 to 50 (v/v) %
  Residual ATPase activity: retained the activity
[1]; 1% methanol added to 0.1 mM alanine and 0.1 mM glucose (FIG. 4C)
  Intracellular ATP level of M. extorquens: 1.2 amol/CFU
[1]; methanol 0.1% to 20%, 0.1 mM glucose, 0.1 mM alanine, 10% ATPase, filtration
  Intracellular ATP level of M. extorquens, % of the maximum: ≥ 70%
[1]; methanol 0.1% to 20%, 0.1 mM glucose, 0.1 mM alanine, 10% ATPase, filtration (FIGS. 5A and B)
  Intracellular ATP level of M. extorquens: 1.1 amol/CFU
[1]; methanol 0.5%, 0.1 mM glucose, 0.1 mM alanine, 10% ATPase, filtration (FIG. 5A)
  Intracellular ATP level of M. extorquens: 1.5 amol/CFU
[1]; methanol 30% or more, 0.1 mM glucose, 0.1 mM alanine, 10% ATPase, filtration (FIG. 5B)
  Intracellular ATP level of M. extorquens: 0.15 amol/CFU
[1]; methanol 30% or more, relative to the maximum at 0.5% methanol
  Decrease of intracellular ATP level of M. extorquens: 90%
Bacillus subtilis
  Cell viability of B. subtilis: 100%
Candida albicans
  Cell viability of C. albicans: ≥ 90%
Staphylococcus aureus
  Cell viability of S. aureus: ≥ 90%
[2]; 0.1% Methanol
  Luminescence level: 12703 CPS
  Relative luminescence: 110%
[2]; 1% Methanol
  Luminescence level: 10200 CPS
  Relative luminescence: 88%
[2]; 10% Methanol
  Luminescence level: 3345 CPS
  Relative luminescence: 29%
[2]; 50% Methanol
  Luminescence level: 13 CPS
  Relative luminescence: 0%
[2]; 50% Methanol, listed as methanol
  Luminescence level: almost no fluorescence

## C[C@H](N)C(=O)O [alanine]
[1]; alanine 1 mM or less in the presence of 1 (v/v) % methanol and 100 mM glucose (FIG. 4A)
  Intracellular ATP level of M. extorquens: 0.9 amol/CFU

## O=C[C@H](O)[C@@H](O)[C@H](O)[C@H](O)CO [glucose]
[1]; glucose varied 0.1 mM to 100 mM in the presence of 1 (v/v) % methanol and 50 mM alanine (FIG. 4B)
  Intracellular ATP level of M. extorquens: about 0.5 amol/CFU
